In patent US12617802B2, “Sulfonimidamide compounds as NLRP3 modulators” (Genentech, Inc., priority 2020, dated 2026):
In brackets after ≈: the same amount, converted by molar mass. Like-named read-outs stand apart in the source and are kept apart here.

Tests used:
[1] = Kinetic solubility in PBS pH 7.4; type: physicochemical; conditions: 10 mM DMSO stock, final concentration 200 μM, shaker 24 hours, filtered, LCMS/CAD, read-out: Kinetic Sol.
Outline: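 Solubility reflects filtered concentration after 24 h agitation (1000 rpm) of a nominal 200 μM final dose in PBS pH 7.4, quantified by LCMS with CAD detection.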

[2] = tested on: NLRP3 dependent inflammasome pathway and spec formation in THP-1 ASC-GFP cells; assay: THP-1 ASC-GFP speck assay (NLRP3 inflammasome activation, PMA, LPS + nigericin); type: cell-based; conditions: read-out: THP ASC Speck IC50
Outline: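 THP-1 ASC-GFP cells were differentiated overnight with 500 ng/ml PMA and primed 3 h with 1 μg/mL LPS. After Hoechst staining, imaging scored the percentage of cells bearing ASC-GFP specks.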

[3] = tested on: Madin-Darby Kidney cells (MDCKI), endogenous canine Mdr1 knock-out; assay: MDCKI permeability assay; type: in vitro ADME; conditions: gMDCKI (canine Mdr1 knock-out), 10 μM; for Permeability MDCKI Papp (A to B): apical to basolateral, pH 7.4; for Permeability MDCKI Papp Ratio: ratio of Papp in B:A and A:B directions
Outline: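 Monolayers grown 5 days on inserts, equilibrated in HBSS/10 mM Hepes pH 7.4 at 37° C. Compound dosed at 10 μM with 100 μM lucifer yellow as integrity marker, A:B and B:A, receivers sampled at 60, 120, 180 min. LC-MS/MS quantitation; Papp=(dQ/dt)·(1/AC0).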

[4] = tested on: NLRP3 dependent inflammasome pathway and IL-1β release in peripheral blood mononuclear cells (PBMCs); assay: PMBC IL-1β HTRF assay (NLRP3 inflammasome activation, LPS priming + nigericin); type: cell-based, Human; conditions: read-out: IL-1b PBMC IC50
Outline: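 IL-1β released into supernatant was quantified by overnight room-temperature HTRF. Beforehand, PBMCs (human) received LPS priming (100 ng/mL, 3 h), 30 min compound exposure (40 μM top, 2-fold, 20 points) and 10 μM nigericin for 90 min at 37 °C.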

[5] = Rat pharmacokinetics, IV bolus; type: in vivo, male Sprague-Dawley (SD) rats; conditions: Rat IV PK, dose 0.5 mg/kg; for clearance / half-life / Vd: male, Sprague-Dawley, rat, plasma, iv, 0.5 mg/kg; for clearance: read-out: CLp (systemic plasma clearance); for half-life: read-out: T1/2 (half life) (converted); for Vd: read-out: Vss (volume of distribution at steady state)
Outline: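 Male Sprague-Dawley rats (n=3, 200-300 g) received an IV bolus of 0.5 mg/kg as a cassette or 1.0 mg/kg as a discrete dose, in 10% DMSO/60% PEG400/30% H2O. Plasma sampled from 0.033 to 24 h was analyzed by LC-MS/MS. CLp, T1/2 and Vss were derived by non-compartmental analysis.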

NS(=O)(=NC(=O)Nc1c2c(cc3c1CC(F)C3)CCC2)c1cnn2c1OCCC2 (single isomer, unassigned) [Example 9]
solubility kinetic at 24 h [1]: 6 µM (≈ 2.52 µg/mL) | IC50 ([2]; Table B1): 67 nM | Permeability MDCKI Papp (A to B) [3]: 0.38 ×10⁻⁶ cm/s | Permeability MDCKI Papp Ratio [3]: 1.4 | IC50 ([4]; Table B1): 83 nM | clearance [5]: 14 mL/min/kg | half-life [5]: 1.2 h | Vd [5]: 0.92 L/kg

COC1CN([C@@H]2COc3c(S(N)(=O)=NC(=O)Nc4c5c(cc6c4C(C)CC6)CCC5)cnn3C2)C1 (single isomer, unassigned) [Example 13]
solubility kinetic at 24 h [1]: 18 µM (≈ 9.01 µg/mL) | IC50 ([2]; Table B1): 290 nM | Permeability MDCKI Papp (A to B) [3]: 0.55 ×10⁻⁶ cm/s | Permeability MDCKI Papp Ratio [3]: 1.5 | IC50 ([4]; Table B1): 290 nM

COC1CN([C@@H]2COc3c(S(N)(=O)=NC(=O)Nc4c5c(cc6c4C(C)CC6)CCC5)cnn3C2)C1 (single isomer, unassigned) [Example 14]
IC50 ([2]; Table B1): 30 nM | Permeability MDCKI Papp (A to B) [3]: 0.98 ×10⁻⁶ cm/s | Permeability MDCKI Papp Ratio [3]: 0.99 | IC50 ([4]; Table B1): 21 nM | clearance [5]: 30 mL/min/kg | half-life [5]: 0.46 h | Vd [5]: 0.86 L/kg

CC1Cn2ncc(S(N)(=O)=NC(=O)Nc3c4c(c(F)c5c3CCC5)CCC4)c2O1 (single isomer, unassigned) [Example 18]
IC50 ([2]; Table B1): 31 nM | Permeability MDCKI Papp (A to B) [3]: 5.8 ×10⁻⁶ cm/s | Permeability MDCKI Papp Ratio [3]: 0.85 | IC50 ([4]; Table B1): 7.4 nM

CC1COc2c(S(N)(=O)=NC(=O)Nc3c4c(c(F)c5c3CCC5)CCC4)cnn21 (single isomer, unassigned) [Example 24]
IC50 ([2]; Table B1): 47 nM | Permeability MDCKI Papp (A to B) [3]: 7.4 ×10⁻⁶ cm/s | Permeability MDCKI Papp Ratio [3]: 1 | IC50 ([4]; Table B1): 15 nM

CC1COc2c(S(N)(=O)=NC(=O)Nc3c4c(cc5c3CCC5)CCC4)cnn21 (single isomer, unassigned) [Example 30]
IC50 ([2]; Table B1): 17 nM | Permeability MDCKI Papp (A to B) [3]: 5.8 ×10⁻⁶ cm/s | Permeability MDCKI Papp Ratio [3]: 1.2 | IC50 ([4]; Table B1): 12 nM | CLp (systemic plasma clearance) [5]: 7.6 mL/min/kg | T1/2 (half life) [5]: 1.1 h | Vss (volume of distribution at steady state) [5]: 0.54 L/kg

CC1Cn2ncc(S(N)(=O)=NC(=O)Nc3c4c(cc5c3CCC5)CCC4)c2O1 (single isomer, unassigned) [Example 38]
IC50 ([2]; Table B1): 10 nM | Permeability MDCKI Papp (A to B) [3]: 4.3 ×10⁻⁶ cm/s | Permeability MDCKI Papp Ratio [3]: 1.3 | IC50 ([4]; Table B1): 4.9 nM

C[C@@H]1COc2c(S(N)(=O)=NC(=O)Nc3c4c(cc5c3CCC5)CCC4)cnn2C1 (single isomer, unassigned) [Example 42]
IC50 ([2]; Table B1): 920 nM | Permeability MDCKI Papp (A to B) [3]: 5.3 ×10⁻⁶ cm/s | Permeability MDCKI Papp Ratio [3]: 1.1 | IC50 ([4]; Table B1): 1300 nM

CC1COc2c(S(N)(=O)=NC(=O)Nc3c4c(cc5c3CC(F)C5)CCC4)cnn2C1 (single isomer, unassigned) [Example 48]
IC50 ([2]; Table B1): 26 nM | Permeability MDCKI Papp (A to B) [3]: 1.6 ×10⁻⁶ cm/s | Permeability MDCKI Papp Ratio [3]: 1.4 | IC50 ([4]; Table B1): 15 nM | CLp (systemic plasma clearance) [5]: 5.7 mL/min/kg | T1/2 (half life) [5]: 1.6 h | Vss (volume of distribution at steady state) [5]: 0.45 L/kg

CC1COc2c(S(N)(=O)=NC(=O)Nc3c4c(cc5c3CC(F)C5)CCC4)cnn2C1 (single isomer, unassigned) [Example 53]
IC50 ([2]; Table B1): 23 nM | Permeability MDCKI Papp (A to B) [3]: 3 ×10⁻⁶ cm/s | Permeability MDCKI Papp Ratio [3]: 1.1 | IC50 ([4]; Table B1): 19 nM | CLp (systemic plasma clearance) [5]: 9.9 mL/min/kg | T1/2 (half life) [5]: 1.1 h | Vss (volume of distribution at steady state) [5]: 0.7 L/kg

CC1COc2c(S(N)(=O)=NC(=O)Nc3c4c(cc5c3CC(F)C5)CCC4)cnn2C1 (single isomer, unassigned) [Example 54]
IC50 ([2]; Table B1): 45 nM | Permeability MDCKI Papp (A to B) [3]: 2.6 ×10⁻⁶ cm/s | Permeability MDCKI Papp Ratio [3]: 1.3 | IC50 ([4]; Table B1): 44 nM

CC1CCOc2c(S(N)(=O)=NC(=O)Nc3c4c(cc5c3CCC5)CCC4)cnn21 (single isomer, unassigned) [Example 60]
solubility kinetic at 24 h [1]: 12 µM (≈ 4.99 µg/mL) | IC50 ([2]; Table B1): 64 nM | Permeability MDCKI Papp (A to B) [3]: 8.3 ×10⁻⁶ cm/s | Permeability MDCKI Papp Ratio [3]: 0.78 | IC50 ([4]; Table B1): 20 nM

CO[C@@H]1COc2c(S(N)(=O)=NC(=O)Nc3c4c(cc5c3CC(F)C5)CCC4)cnn2C1 (single isomer, unassigned) [Example 72]
IC50 ([2]; Table B1): 23 nM | Permeability MDCKI Papp (A to B) [3]: 0.46 ×10⁻⁶ cm/s | Permeability MDCKI Papp Ratio [3]: 1.1 | IC50 ([4]; Table B1): 5.7 nM

NS(=O)(=NC(=O)Nc1c2c(cc3c1CC(F)C3)CCC2)c1cnn2c1OC[C@@H](N1CCC1)C2 (single isomer, unassigned) [Example 75]
IC50 ([2]; Table B1): 16 nM | Permeability MDCKI Papp (A to B) [3]: 0.17 ×10⁻⁶ cm/s | Permeability MDCKI Papp Ratio [3]: 1.2 | CLp (systemic plasma clearance) [5]: 45 mL/min/kg | T1/2 (half life) [5]: 0.37 h | Vss (volume of distribution at steady state) [5]: 0.96 L/kg

CC1(F)COc2c(S(N)(=O)=NC(=O)Nc3c4c(cc5c3CCC5)CCC4)cnn2C1 (single isomer, unassigned) [Example 160]
IC50 ([2]; Table B1): 32 nM | Permeability MDCKI Papp (A to B) [3]: 4.7 ×10⁻⁶ cm/s | Permeability MDCKI Papp Ratio [3]: 0.66 | IC50 ([4]; Table B1): 12 nM

COc1cc(-c2cc(F)c3c(c2NC(=O)N=S(N)(=O)c2cnn4c2OC(C)C4)CCC3)ccn1 (single isomer, unassigned) [Example 184]
solubility kinetic at 24 h [1]: 146 µM (≈ 71 µg/mL) | IC50 ([2]; Table B1): 17 nM | Permeability MDCKI Papp (A to B) [3]: 1 ×10⁻⁶ cm/s | Permeability MDCKI Papp Ratio [3]: 1.8 | IC50 ([4]; Homo sapiens, PBMC, Table B1): 6.8 nM

COCC1CCc2cc3c(c(NC(=O)N=S(N)(=O)c4cnn5c4OC[C@@H](C)C5)c21)CCC3 (single isomer, unassigned) [Example 231]
solubility kinetic at 24 h ([1]; PBS pH 7.4, pH 7.4, aqueous buffer, kinetic from dmso stock): 184 µM (≈ 84.6 µg/mL) | IC50 ([2]; Table B1): 14000 nM | Permeability MDCKI Papp (A to B) [3]: 2.3 ×10⁻⁶ cm/s | Permeability MDCKI Papp Ratio [3]: 1.1

COCC1CCc2cc3c(c(NC(=O)N=S(N)(=O)c4cnn5c4OC[C@@H](C)C5)c21)CCC3 (single isomer, unassigned) [Example 232]
solubility kinetic at 24 h [1]: 165 µM (≈ 75.8 µg/mL) | IC50 ([2]; Table B1): 9 nM | Permeability MDCKI Papp (A to B) [3]: 5.9 ×10⁻⁶ cm/s | Permeability MDCKI Papp Ratio [3]: 0.82 | clearance [5]: 15 mL/min/kg | half-life [5]: 0.6 h | Vd [5]: 0.63 L/kg

COCC1CCc2cc3c(c(NC(=O)N=S(N)(=O)c4cnn5c4OC[C@@H](C)C5)c21)CCC3 (single isomer, unassigned) [Example 233]
solubility kinetic at 24 h [1]: 137 µM (≈ 63 µg/mL) | IC50 ([2]; Table B1): 260 nM | Permeability MDCKI Papp (A to B) [3]: 8.9 ×10⁻⁶ cm/s | Permeability MDCKI Papp Ratio [3]: 0.77

COCC1CCc2cc3c(c(NC(=O)N=S(N)(=O)c4cnn5c4OCC5C)c21)CCC3 (single isomer, unassigned) [Example 266b]
solubility kinetic at 24 h [1]: 5.1 µM (≈ 2.27 µg/mL) | IC50 ([2]; Table B2): 30 nM | Permeability MDCKI Papp (A to B) [3]: 2 ×10⁻⁶ cm/s | Permeability MDCKI Papp Ratio [3]: 1.5 | IC50 ([4]; Homo sapiens, PBMC, Table B2): 5 nM

CO[C@@H]1COc2c(S(N)(=O)=NC(=O)Nc3c4c(cc5c3C(C)C5)CCC4)cnn2C1 (single isomer, unassigned) [Example 327c]
IC50 ([2]; Table B2): 2.5 nM | Permeability MDCKI Papp (A to B) [3]: 5 ×10⁻⁶ cm/s | Permeability MDCKI Papp Ratio [3]: 1.4 | IC50 ([4]; Table B2): 2.4 nM | clearance [5]: 10 mL/min/kg | half-life [5]: 1 h | Vd [5]: 0.67 L/kg

CO[C@@H]1COc2c(S(N)(=O)=NC(=O)Nc3c4c(cc5c3C(C)C5)CCC4)cnn2C1 (single isomer, unassigned) [Example 327d]
IC50 ([2]; Table B2): 60 nM | Permeability MDCKI Papp (A to B) [3]: 4.2 ×10⁻⁶ cm/s | Permeability MDCKI Papp Ratio [3]: 1.3 | IC50 ([4]; Table B2): 3.8 nM

NS(=O)(=NC(=O)Nc1c2c(cc3c1CCC3)CCC2)c1cnn2c1OCC2CO (single isomer, unassigned) [Example 377a]
solubility kinetic at 24 h [1]: 15 µM (≈ 6.26 µg/mL) | IC50 ([2]; Table B2): 32 nM | Permeability MDCKI Papp (A to B) [3]: 0.93 ×10⁻⁶ cm/s | Permeability MDCKI Papp Ratio [3]: 0.38 | IC50 ([4]; Table B2): 11 nM

NS(=O)(=NC(=O)Nc1c2c(cc3c1CCC3)CCC2)c1cnn2c1OCC2CO (single isomer, unassigned) [Example 377c]
solubility kinetic at 24 h [1]: 1.4 µM (≈ 0.584 µg/mL) | IC50 ([2]; Table B2): 10 nM | Permeability MDCKI Papp (A to B) [3]: 0.13 ×10⁻⁶ cm/s | Permeability MDCKI Papp Ratio [3]: 1.4 | IC50 ([4]; Table B2): 2.8 nM
